Assay results taken from the NIST ThermoML archive (doi:10.1021/je900738e).
± gives the expanded uncertainty stated by the source.

Settings: Liquid, Manometric method

Row | vapor or sublimation pressure (283.15 K) [kPa] | vapor or sublimation pressure (293.15 K) [kPa] | vapor or sublimation pressure (303.15 K) [kPa] | vapor or sublimation pressure (313.15 K) [kPa] | vapor or sublimation pressure (323.15 K) [kPa] | vapor or sublimation pressure (333.15 K) [kPa] | vapor or sublimation pressure (343.15 K) [kPa] | vapor or sublimation pressure (346.65 K) [kPa] | vapor or sublimation pressure (287.15 K) [kPa] | vapor or sublimation pressure (296.35 K) [kPa] | vapor or sublimation pressure (305.35 K) [kPa] | vapor or sublimation pressure (313.45 K) [kPa] | vapor or sublimation pressure (323.05 K) [kPa] | vapor or sublimation pressure (332.95 K) [kPa] | vapor or sublimation pressure (343.05 K) [kPa] | vapor or sublimation pressure (352.85 K) [kPa] | vapor or sublimation pressure (363.05 K) [kPa] | vapor or sublimation pressure (372.85 K) [kPa] | Structure (SMILES)
1 | 3.96 ± 0.22 | 7.25 ± 0.22 | 12.82 ± 0.23 | 21.83 ± 0.26 | 36.1 ± 0.3 | 57.08 ± 0.38 | 87.31 ± 0.46 | 100.8 ± 0.52 | – | – | – | – | – | – | – | – | – | – | OCC(F)(F)F [2,2,2-trifluoroethanol]
2 | – | – | – | – | – | – | – | – | 1.64 ± 0.21 | 2.81 ± 0.22 | 4.74 ± 0.22 | 7.51 ± 0.23 | 12.26 ± 0.26 | 19.69 ± 0.32 | 30.94 ± 0.42 | 46.73 ± 0.57 | 69.75 ± 0.8 | 100.32 ± 1.1 | O [water]
